Results as given in ChEMBL document CHEMBL1201862, “PubChem BioAssay data set” (2004).
Activity calls are given as the source filed them.

Legend:
[1] = biological target: FAD-linked sulfhydryl oxidase ALR (Homo sapiens, UniProt P55789); assay: ALR-catalysed DTT oxidation blockers – biochemical, H2O2 detection, luminescence, cherry-pick, dose response (AID 493248)
[2] = biological target: T1, Aminopeptidase N (Plasmodium falciparum FcB1/Columbia, UniProt O96935); assay: malaria alanyl aminopeptidase activity blockers – biochemical, fluorogenic H-Leu-NHMec substrate, 1536-well (AID 1445); set-up: species or system Plasmodium falciparum 3D7, 3D7
T1 sequence (O96935 whole entry): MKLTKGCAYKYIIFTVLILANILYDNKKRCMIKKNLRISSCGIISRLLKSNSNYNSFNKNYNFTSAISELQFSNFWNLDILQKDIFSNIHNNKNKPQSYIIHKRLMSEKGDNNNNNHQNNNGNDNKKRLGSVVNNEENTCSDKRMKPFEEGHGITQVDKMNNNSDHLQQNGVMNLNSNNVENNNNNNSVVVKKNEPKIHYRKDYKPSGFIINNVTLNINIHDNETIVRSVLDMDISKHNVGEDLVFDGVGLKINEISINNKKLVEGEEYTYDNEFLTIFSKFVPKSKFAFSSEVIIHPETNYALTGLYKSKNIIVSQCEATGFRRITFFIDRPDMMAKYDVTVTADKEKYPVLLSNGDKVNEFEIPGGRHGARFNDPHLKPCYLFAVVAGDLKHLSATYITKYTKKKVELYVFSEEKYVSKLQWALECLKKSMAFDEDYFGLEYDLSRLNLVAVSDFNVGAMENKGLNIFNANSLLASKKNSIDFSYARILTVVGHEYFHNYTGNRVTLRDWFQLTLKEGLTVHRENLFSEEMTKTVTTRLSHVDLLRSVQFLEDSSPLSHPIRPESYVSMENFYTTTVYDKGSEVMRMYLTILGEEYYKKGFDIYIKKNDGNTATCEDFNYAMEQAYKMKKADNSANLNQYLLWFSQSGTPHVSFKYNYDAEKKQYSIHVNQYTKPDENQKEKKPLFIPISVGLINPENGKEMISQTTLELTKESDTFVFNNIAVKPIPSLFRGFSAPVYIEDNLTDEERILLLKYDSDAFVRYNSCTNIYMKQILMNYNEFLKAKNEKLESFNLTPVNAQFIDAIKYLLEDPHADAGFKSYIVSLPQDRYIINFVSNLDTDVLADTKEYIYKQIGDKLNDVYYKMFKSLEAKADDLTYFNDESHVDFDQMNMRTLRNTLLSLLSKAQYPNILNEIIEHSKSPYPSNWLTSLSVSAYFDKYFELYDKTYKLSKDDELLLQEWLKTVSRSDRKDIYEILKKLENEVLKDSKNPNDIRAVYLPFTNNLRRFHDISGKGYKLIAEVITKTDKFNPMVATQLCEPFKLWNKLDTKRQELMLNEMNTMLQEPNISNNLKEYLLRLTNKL

[3] = NIH-3T3 fibroblast cytotoxicity, dose response, cytotoxicity control, cell-based, fluorescence, Alamar Blue, secondary assay (AID 2327); format: functional;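 also: NIH-3T3 mouse fibroblasts cultured with fluconazole at 8 µg/mL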
[4] = fluconazole-exposed Candida albicans growth modulators – fluorescence, retest, confirmation (AID 2467); format: functional, cell-based
[5] = biological target: ATP-dependent molecular chaperone HSP82 (Candida albicans (strain WO-1) (Yeast), UniProt C4YTQ8); assay: steroid-induced GRE reporter decrease in yeast – S. cerevisiae, luminescence, Hsp90 inhibitor project, dose response (AID 2400); format: functional, cell-based;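 also: beta-galactosidase luminescence from glucocorticoid response element reporter as proxy for Hsp90 function; inhibitor potency where signal loss means Hsp90 inhibition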
Sequence of ATP-dependent molecular chaperone HSP82 (C4YTQ8 whole entry): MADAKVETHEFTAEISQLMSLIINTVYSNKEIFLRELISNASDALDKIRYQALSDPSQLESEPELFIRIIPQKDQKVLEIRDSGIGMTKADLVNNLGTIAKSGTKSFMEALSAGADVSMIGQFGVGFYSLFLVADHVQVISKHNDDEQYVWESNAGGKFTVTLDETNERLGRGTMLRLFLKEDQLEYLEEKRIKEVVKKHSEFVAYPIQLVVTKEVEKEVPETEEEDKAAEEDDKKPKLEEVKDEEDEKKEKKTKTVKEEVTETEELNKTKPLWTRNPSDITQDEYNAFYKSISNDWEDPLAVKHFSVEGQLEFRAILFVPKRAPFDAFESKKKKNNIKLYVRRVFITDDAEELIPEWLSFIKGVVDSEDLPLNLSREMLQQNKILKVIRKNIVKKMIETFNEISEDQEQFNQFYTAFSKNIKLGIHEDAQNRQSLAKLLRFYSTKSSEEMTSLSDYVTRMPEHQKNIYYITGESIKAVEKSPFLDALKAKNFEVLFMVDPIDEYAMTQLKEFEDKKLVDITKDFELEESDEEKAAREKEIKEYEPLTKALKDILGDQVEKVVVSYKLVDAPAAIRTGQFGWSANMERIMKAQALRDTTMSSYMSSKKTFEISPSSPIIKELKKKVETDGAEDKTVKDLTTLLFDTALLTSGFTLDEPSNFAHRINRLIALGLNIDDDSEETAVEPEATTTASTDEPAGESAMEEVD

[6] = biological target: T2, Serine/threonine-protein phosphatase (Candida dubliniensis (strain CD36 / CBS 7987 / NCPF 3949 / NRRLY-17841) (Yeast), UniProt B9W6M3); assay: blockers of CaCl2-induced CDRE-lacZ signaling – S. cerevisiae, luminescence, secondary, dose response (AID 2388); format: functional, cell-based;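 also: yeast reporter cells carrying a calcineurin-responsive lacZ construct stimulated with calcium chloride; luminescent beta-galactosidase reporter signal in whole cells rather than isolated phosphatase activity; potency for inhibition where a drop in reporter signal means calcineurin blockade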
T2 sequence (B9W6M3 whole entry): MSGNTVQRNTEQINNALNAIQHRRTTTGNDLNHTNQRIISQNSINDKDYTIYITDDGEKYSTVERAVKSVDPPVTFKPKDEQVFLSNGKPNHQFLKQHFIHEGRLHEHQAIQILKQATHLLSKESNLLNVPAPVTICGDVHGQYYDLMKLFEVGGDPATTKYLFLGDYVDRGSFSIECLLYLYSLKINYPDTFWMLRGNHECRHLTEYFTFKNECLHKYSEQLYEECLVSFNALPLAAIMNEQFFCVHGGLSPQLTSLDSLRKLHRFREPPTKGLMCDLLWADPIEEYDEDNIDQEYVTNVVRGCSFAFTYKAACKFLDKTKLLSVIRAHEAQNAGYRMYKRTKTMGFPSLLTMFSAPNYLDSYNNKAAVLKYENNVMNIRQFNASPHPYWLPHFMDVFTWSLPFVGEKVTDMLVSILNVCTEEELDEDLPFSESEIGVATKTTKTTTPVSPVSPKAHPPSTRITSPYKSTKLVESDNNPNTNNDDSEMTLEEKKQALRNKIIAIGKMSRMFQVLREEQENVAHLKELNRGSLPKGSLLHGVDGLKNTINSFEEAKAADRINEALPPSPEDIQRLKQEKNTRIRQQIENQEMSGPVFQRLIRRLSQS

[7] = biological target: DNA dC->dU-editing enzyme APOBEC-3G (Homo sapiens, UniProt Q9HC16); format: functional;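 also: Dose-response counterscreen measuring inhibition of APOBEC3G DNA deaminase activity, run while confirming APOBEC3A inhibitors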
Sequence of DNA dC->dU-editing enzyme APOBEC-3G (Q9HC16 whole entry): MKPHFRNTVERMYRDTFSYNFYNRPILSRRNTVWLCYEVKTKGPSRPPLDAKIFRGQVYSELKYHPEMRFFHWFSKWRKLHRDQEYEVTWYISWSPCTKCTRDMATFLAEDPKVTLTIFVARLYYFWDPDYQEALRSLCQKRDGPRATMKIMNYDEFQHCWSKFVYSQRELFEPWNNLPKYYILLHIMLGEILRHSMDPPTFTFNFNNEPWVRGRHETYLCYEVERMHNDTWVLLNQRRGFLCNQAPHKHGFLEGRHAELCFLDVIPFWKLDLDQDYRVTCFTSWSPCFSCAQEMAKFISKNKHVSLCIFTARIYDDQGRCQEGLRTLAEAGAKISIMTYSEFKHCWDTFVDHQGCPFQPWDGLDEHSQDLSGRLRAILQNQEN

[8] = biological target: DNA dC->dU-editing enzyme APOBEC-3A (Homo sapiens, UniProt P31941); assay: Dose Response confirmation of small molecule APOBEC3A DNA Deaminase Inhibitors via a fluorescence-based single-stranded DNA deaminase assay. [Related pubchem assays (depositor defined):AID493011, AID493024]; format: functional
Sequence of DNA dC->dU-editing enzyme APOBEC-3A (P31941 whole entry): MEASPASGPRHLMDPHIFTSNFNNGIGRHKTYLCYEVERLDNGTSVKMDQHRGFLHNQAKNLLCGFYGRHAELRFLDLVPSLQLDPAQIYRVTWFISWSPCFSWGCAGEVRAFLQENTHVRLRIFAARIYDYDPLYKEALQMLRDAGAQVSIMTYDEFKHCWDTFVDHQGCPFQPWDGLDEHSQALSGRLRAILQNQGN

[9] = biological target: Voltage-dependent T-type calcium channel subunit alpha-1H (Homo sapiens, UniProt O95180); format: functional;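 also: channel activity triggered by adding a high calcium stimulation buffer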
Sequence of Voltage-dependent T-type calcium channel subunit alpha-1H (O95180 whole entry): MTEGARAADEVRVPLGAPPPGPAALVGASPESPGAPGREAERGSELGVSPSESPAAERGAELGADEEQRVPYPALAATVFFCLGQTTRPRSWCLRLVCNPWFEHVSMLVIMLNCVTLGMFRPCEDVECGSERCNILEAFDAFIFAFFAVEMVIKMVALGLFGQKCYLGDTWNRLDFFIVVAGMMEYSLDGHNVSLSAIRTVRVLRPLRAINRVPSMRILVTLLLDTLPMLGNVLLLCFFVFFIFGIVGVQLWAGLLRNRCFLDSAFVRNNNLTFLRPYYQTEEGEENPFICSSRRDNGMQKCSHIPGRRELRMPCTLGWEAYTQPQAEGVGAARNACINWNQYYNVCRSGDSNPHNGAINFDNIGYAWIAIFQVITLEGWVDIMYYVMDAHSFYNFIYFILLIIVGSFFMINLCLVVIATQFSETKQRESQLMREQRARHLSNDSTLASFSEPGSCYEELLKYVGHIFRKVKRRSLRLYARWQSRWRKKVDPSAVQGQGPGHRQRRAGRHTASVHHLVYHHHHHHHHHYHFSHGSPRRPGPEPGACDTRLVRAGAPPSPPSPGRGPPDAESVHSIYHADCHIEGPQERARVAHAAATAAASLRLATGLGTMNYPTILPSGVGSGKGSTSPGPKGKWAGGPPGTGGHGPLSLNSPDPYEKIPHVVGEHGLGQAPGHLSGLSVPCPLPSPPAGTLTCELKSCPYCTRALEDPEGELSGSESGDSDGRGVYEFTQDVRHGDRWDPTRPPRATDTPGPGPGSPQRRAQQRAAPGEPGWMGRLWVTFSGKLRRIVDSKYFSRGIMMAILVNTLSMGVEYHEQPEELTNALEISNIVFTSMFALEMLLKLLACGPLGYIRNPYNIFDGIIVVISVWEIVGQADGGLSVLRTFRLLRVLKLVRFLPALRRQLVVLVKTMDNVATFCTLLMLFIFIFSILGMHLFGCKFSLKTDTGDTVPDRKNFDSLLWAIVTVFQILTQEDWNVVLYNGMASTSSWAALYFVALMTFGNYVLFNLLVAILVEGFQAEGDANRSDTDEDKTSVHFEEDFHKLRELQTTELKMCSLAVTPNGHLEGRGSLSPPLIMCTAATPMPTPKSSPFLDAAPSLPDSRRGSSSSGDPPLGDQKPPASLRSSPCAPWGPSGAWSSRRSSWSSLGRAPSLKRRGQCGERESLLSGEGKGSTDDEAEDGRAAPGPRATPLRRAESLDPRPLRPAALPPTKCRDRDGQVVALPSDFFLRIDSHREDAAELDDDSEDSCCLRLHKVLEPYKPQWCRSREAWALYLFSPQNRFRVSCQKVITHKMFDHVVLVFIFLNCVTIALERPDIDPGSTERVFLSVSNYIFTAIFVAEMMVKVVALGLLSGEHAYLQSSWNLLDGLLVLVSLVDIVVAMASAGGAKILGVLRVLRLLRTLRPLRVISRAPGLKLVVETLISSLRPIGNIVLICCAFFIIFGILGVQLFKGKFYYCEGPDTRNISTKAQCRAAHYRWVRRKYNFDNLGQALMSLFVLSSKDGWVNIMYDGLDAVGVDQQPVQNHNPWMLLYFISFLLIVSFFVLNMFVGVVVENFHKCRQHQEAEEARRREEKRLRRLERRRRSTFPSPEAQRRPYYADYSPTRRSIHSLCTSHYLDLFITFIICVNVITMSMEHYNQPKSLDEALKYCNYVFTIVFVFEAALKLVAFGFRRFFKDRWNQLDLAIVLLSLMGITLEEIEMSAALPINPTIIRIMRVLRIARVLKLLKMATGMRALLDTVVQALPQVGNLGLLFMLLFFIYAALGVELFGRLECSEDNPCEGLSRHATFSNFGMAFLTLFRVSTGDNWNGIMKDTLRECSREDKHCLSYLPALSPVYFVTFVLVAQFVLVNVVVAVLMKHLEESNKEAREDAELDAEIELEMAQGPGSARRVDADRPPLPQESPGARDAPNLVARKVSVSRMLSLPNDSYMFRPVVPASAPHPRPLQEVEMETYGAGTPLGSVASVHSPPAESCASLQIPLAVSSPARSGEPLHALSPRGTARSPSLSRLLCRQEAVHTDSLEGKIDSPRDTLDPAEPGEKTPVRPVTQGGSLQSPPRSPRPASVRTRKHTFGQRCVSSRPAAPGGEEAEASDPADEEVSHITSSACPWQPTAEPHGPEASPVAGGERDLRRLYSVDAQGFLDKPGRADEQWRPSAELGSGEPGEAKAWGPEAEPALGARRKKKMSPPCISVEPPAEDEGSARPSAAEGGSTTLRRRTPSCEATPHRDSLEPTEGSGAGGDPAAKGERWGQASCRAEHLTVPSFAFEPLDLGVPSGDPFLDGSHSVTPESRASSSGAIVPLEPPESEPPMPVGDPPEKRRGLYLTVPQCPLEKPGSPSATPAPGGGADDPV

[10] = HEK-293T cell viability reduction – luminescence, B-cell screen hits, cytotoxicity control for BCR NF-kB inhibitor project, dose response (AID 489021); format: functional, cell-based;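 also: HEK-293T cells carrying an NF-kB luciferase reporter; cells exposed to compound for about 14 hours before viability readout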
[11] = biological target: Large T antigen (Simian virus 40, UniProt P03070); format: functional, Betapolyomavirus macacae;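 also: Confirmatory-stage PubChem screen for compounds that inhibit SV40 T antigen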
[12] = biological target: Peroxisome proliferator-activated receptor gamma/Nuclear receptor coactivator 3 (Homo sapiens, UniProt P37231); assay: TR-FRET dose response biochemical High Throughput Screening assay for agonists of the steroid receptor coactivator 3 (SRC-3) recruitment by the peroxisome proliferator-activated receptor gamma (PPAR gamma): non-selective agonists. [Related pubchem assays: 1301 (Confirmation screen.), 1048 (Primary screen.)]; format: functional
[13] = biological target: Peroxisome proliferator-activated receptor gamma/Nuclear receptor coactivator 1 (Homo sapiens, UniProt P37231); assay: TR-FRET dose response biochemical High Throughput Screening assay for agonists of the steroid receptor coactivator 1 (SRC-1) recruitment by the peroxisome proliferator-activated receptor gamma (PPAR gamma): non-selective agonists. [Related pubchem assays (depositor defined):AID1300, AID1808, AID504735, AID631]; format: protein assay
[14] = biological target: Peroxisome proliferator-activated receptor gamma/Nuclear receptor coactivator 2 (Homo sapiens, UniProt P37231); assay: TR-FRET dose response biochemical High Throughput Screening assay for agonists of the steroid receptor coactivator 2 (SRC-2) recruitment by the peroxisome proliferator-activated receptor gamma (PPAR gamma): non-selective agonists. [Related pubchem assays: 1297, 1032 ]; format: functional
[15] = biological target: Trypsin (Sus scrofa, UniProt P00761); assay: trypsin protease activity blockade – biochemical, quenched peptide fluorescence, cherry-pick, selectivity assay for Rce1 protease inhibitor project, dose response (AID 488789)
[16] = biological target: T3, Alkaline phosphatase, tissue-nonspecific isozyme (Homo sapiens, UniProt P05186); assay: potency against alkaline phosphatase TNAP – biochemical, luminescent, dose response, SAR follow-up (AID 1056)
T3 sequence (P05186 whole entry): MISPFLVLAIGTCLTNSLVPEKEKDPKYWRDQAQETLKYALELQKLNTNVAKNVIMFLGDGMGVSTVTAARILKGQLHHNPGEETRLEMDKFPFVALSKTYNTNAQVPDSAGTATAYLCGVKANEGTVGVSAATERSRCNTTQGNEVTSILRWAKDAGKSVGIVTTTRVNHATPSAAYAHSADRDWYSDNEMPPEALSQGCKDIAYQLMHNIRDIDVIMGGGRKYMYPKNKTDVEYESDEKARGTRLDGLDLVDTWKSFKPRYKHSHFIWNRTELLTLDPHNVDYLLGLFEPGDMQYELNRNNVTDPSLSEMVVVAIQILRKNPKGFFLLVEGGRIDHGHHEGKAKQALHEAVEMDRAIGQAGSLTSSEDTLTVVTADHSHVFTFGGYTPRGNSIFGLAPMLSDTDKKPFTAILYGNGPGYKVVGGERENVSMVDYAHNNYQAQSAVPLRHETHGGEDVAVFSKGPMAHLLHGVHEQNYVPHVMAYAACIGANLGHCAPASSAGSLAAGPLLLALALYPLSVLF

[17] = biological target: Alkaline phosphatase, placental type (Homo sapiens, UniProt P05187); assay: human placental alkaline phosphatase inhibition – biochemical, luminescence, confirmation (AID 1512); format: functional
Sequence of Alkaline phosphatase, placental type (P05187 whole entry): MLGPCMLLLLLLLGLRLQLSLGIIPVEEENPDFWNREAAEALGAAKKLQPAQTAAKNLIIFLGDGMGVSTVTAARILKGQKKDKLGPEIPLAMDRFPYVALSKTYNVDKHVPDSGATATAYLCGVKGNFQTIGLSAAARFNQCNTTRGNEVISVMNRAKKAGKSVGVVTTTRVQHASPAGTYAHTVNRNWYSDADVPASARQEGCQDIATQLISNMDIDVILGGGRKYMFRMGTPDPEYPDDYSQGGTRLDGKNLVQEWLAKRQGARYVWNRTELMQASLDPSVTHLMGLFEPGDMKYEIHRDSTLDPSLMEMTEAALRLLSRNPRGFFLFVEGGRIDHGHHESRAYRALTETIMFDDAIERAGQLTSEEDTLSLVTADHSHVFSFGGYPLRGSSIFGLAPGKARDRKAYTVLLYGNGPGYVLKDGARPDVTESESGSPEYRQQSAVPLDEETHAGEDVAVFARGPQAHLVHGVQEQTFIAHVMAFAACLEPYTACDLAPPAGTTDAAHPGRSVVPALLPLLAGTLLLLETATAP

[18] = biological target: Cytochrome P450 2C19 (Homo sapiens, UniProt P33261); assay: Cytochrome panel assay with activity outcomes. Panel member name: p450-cyp2c19 Compounds with AC50 equal or less than 10 uM are considered active; format: functional; settings: read-out: AC50
Sequence of Cytochrome P450 2C19 (P33261 whole entry): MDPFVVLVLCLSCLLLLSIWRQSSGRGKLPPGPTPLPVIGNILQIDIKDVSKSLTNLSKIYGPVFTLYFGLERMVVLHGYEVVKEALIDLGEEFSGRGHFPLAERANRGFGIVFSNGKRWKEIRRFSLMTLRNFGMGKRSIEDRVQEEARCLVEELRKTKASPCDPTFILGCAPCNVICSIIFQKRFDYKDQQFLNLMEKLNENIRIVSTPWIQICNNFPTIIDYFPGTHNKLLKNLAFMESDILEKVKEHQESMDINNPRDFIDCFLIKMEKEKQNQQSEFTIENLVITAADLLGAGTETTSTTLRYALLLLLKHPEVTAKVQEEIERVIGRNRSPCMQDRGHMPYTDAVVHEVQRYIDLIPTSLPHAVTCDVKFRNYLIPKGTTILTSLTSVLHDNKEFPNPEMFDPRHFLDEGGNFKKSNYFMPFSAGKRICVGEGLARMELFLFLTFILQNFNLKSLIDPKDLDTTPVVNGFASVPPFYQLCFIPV

[19] = biological target: Cytochrome P450 2C9 (Homo sapiens, UniProt P11712)
[20] = viability of uninfected HEp-2 cells – cell-based, HTS, cytotoxicity control for RSV inhibitor project, dose response (AID 2410); format: functional; settings: human respiratory syncytial virus

Sequence of FAD-linked sulfhydryl oxidase ALR (P55789 whole entry): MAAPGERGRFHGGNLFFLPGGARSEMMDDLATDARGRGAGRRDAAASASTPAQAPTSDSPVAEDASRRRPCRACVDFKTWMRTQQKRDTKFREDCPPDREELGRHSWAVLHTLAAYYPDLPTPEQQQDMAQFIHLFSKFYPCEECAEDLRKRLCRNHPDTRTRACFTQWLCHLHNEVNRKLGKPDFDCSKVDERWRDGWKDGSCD

Structure (SMILES): Cc1c(CCC(=O)O)c(=O)oc2cc3occ(-c4ccc(F)cc4)c3cc12
- AC50 [1]: 2.68 µM (active)
- IC50 [2]: 16.3 µM (active)

Structure (SMILES): O=C(O)c1ccccc1-c1ccccc1C(=O)Nc1cccc(-c2nc3ccccc3o2)c1
- EC50 [3]: > 160 µM (inactive)
- EC50 [4]: 2.62 µM (active)
- EC50 [5]: > 150 µM (inactive)
- EC50 [6]: > 180 µM (inactive)
- IC50 [2]: 16.4 µM (active)

Structure (SMILES): CN(C)S(=O)(=O)c1ccc(C(=O)NCC[N+]2(C)CCCCCC2)o1
- IC50 [7]: 4.08 µM (active)
- IC50 [8]: 1.89 µM (active)

Structure (SMILES): Cc1cnc(Nc2nc3ccccc3o2)nc1C(=O)Nc1cccc(C(F)(F)F)c1
- EC50 [9]: 5.15 µM (active)

Structure (SMILES): CC1CCN(C(=O)c2ncn(C)c2C(=O)N2CCC(C)CC2)CC1
- IC50 [7]: 2.83 µM (active)
- IC50 [8]: 2.34 µM (active)

Structure (SMILES): Cc1ccc(-c2nnc(CSc3nnc(COc4ccccc4)n3-c3ccc(C)cc3)o2)cc1
- EC50 [9]: 4.75 µM (active)

Structure (SMILES): O=C(CN1C(=O)c2ccccc2S1(=O)=O)c1ccc(OC(F)F)cc1
- IC50 [10]: > 80 µM (inactive)

Structure (SMILES): O=c1oc2cc(O)ccc2c2ccccc12
- IC50 [11]: 38.8 µM (active)
- EC50 [12]: > 79.4 µM (not active)
- EC50 [13]: > 79.4 µM (inactive)
- EC50 [14]: > 79.4 µM (not active)

Structure (SMILES): Cc1cccc(N2CCN(C(=O)CCCOc3ccccc3)CC2)c1C
- EC50 [9]: 5.65 µM (active)

Structure (SMILES): CCCn1c(N2CCN(CC(=O)Nc3ccc4c(c3)OCCO4)CC2)nc2ccccc21
- EC50 [9]: 3.84 µM (active)

Structure (SMILES): O=C(NCc1ccc2c(c1)OCO2)c1cc(-n2cnnc2)ccc1Cl
- IC50 [7]: 2.44 µM (active)
- IC50 [8]: 1.64 µM (active)

Structure (SMILES): CN1C(=O)c2ccccc2N(C)C1c1ccccc1Cl (centres undefined)
- AC50 [15]: 9.6 µM (active)

Structure (SMILES): C=CCn1c(SCC(=O)c2ccc(O)c(O)c2)nnc1-c1cccc(C)c1
- IC50 [16]: 17.8 µM (active)
- IC50 [17]: 5.59 µM (active)

Structure (SMILES): Cc1ccc(Sc2ccc(NC(=O)c3ccc(S(C)(=O)=O)cc3Cl)cc2)cc1
- EC50 [12]: > 8.82 µM (not active)
- EC50 [13]: 5.96 µM (active)
- AC50 [18]: 39.8 µM (inconclusive)
- AC50 [19]: inconclusive
- EC50 [14]: 5.64 µM (active)

Structure (SMILES): Cc1cc(O)oc2nnc(-c3ccccc3)c1-2
- IC50 [16]: 0.23 µM (active)
- CC50 [20]: 34.3 µM (active)
- IC50 [17]: > 100 µM (inactive)

Structure (SMILES): CCOC(=O)C1CCN(C(=O)CSc2cc(=O)n(C)c3ccccc23)CC1
- EC50 [12]: > 79.4 µM (not active)
- EC50 [13]: > 79.4 µM (inactive)
- EC50 [14]: > 79.4 µM (not active)

Structure (SMILES): Cc1cc(OCC(=O)N2CCC(C(N)=O)CC2)c2c3c(c(=O)oc2c1)CCCC3
- IC50 [10]: > 80 µM (inactive)

Structure (SMILES): CCCNC(=O)c1ccc(N2CCC3(CC2)CC(c2cccc(Br)c2)=NO3)c(NC(=O)c2ccc(Cl)c([N+](=O)[O-])c2)c1
- IC50 [10]: > 80 µM (inactive)

Structure (SMILES): Cn1c(=O)cc(SCC(=O)NCCCN2CCN(c3ccc(F)cc3)CC2)c2ccccc21
- EC50 [12]: > 79.4 µM (not active)
- EC50 [13]: > 79.4 µM (inactive)
- EC50 [14]: > 26.5 µM (not active)

Structure (SMILES): C[N+]1(CCCOC(=O)C2(c3ccccc3)CCCC2)CCOCC1
- IC50 [7]: 1.99 µM (active)
- IC50 [8]: 1.61 µM (active)

Structure (SMILES): O=C(NCCc1ccc(O)c(O)c1)C1CCCO1 (centres undefined)
- IC50 [16]: > 100 µM (inactive)
- IC50 [17]: 44.4 µM (active)

Structure (SMILES): Cc1nccn1CC(=O)c1ccc(O)c(O)c1
- IC50 [16]: 59.6 µM (active)
- AC50 [1]: 4.4 µM (active)
- IC50 [17]: 2.37 µM (active)

Structure (SMILES): O=C(Cc1ccc(S(=O)(=O)N2CCOCC2)s1)NCCC(c1ccccc1)c1ccccc1
- IC50 [2]: 2.76 µM (active)
